Assay results from US11279735B2, “Cyclic peptide antibiotics” (priority 2017, dated 2022).
Values after ≈ are worked out from the molar mass of the structure shown. *1 amine or outer side, *2 acyl side, *3 side chain or, on linkers, in order; H or OH if unused. Where a SMILES comes first, the peptide text is derived from it. [ ]: non-standard residue; d: D form. The star is where a group is joined. X13 = C[C@H](CO[C@H](CC1CC2(CCC2)C1)[C@@H](C)C(=O)[*:2])N[*:1]; X16 = CCCCCC[C@@H](O[C@@H](C)CN[*:1])[C@@H](C)C(=O)[*:2]; X2 = CCCCCC[C@@H](OC[C@@H](C)N[*:1])[C@@H](C)C(=O)[*:2]; Cyclobutyl(trans-3-NH2) = N[C@H]1C[C@H](*)C1; Gly(cHept) = N[C@H](C(=O)O)C1CCCCCC1; aThr = C[C@H](O)[C@H](N)C(=O)O; NMeL = CN[C@@H](CC(C)C)C(=O)O; Chg = N[C@H](C(=O)O)C1CCCCC1; NMeNva = CCC[C@H](NC)C(=O)O; Dap = NC[C@H](N)C(=O)O; Propyl(3-NH2) = NCCC*

These compounds were tested on Escherichia coli (E. coli) strain CFT073 ATCC 700928. Details: ATCC 700928, 22 h.
Format: cell-based
Procedure, shortened: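 MICs were read after 22 h at 35 °C, with bacteria added to a final OD600 of 0.0005. Compounds were serially diluted 2-fold over ten concentrations from a top of 64, 4, 0.5 or 0.13 μg/mL (protocols 1–4). Medium was cation-adjusted Mueller Hinton II broth plus 0.002% Tween-80, following CLSI M07-A8.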
For `CCCCCC[C@H]1OC[C@@H](C)NC(=O)[C@H](COCCCN)NC(=O)[C@H](CO)NC(=O)[C@H](C2CCCCC2)NC(=O)[C@H](CCC)N(C)C(=O)[C@@H]1C` [Example 130, (3R,6S,9S,12S,15S,18R,19R)-6-(3-aminopropoxymethyl)-12-cyclohexyl-19-hexyl-9-(hydroxymethyl)-3,16,18-trimethyl-15-propyl-1-oxa-4,7,10,13,16-pentazacyclononadecane-5,8,11,14,17-pentone] (cyclo([Chg]SS(Propyl(3-NH2))[X2][NMeNva])), the MIC was 44 µM (≈ 31.3 µg/mL). `CCCCCCCCCC[C@H]1OC(=O)CNC(=O)[C@H]([C@H](C)O)NC(=O)[C@H](CN)NC(=O)[C@H](C2CCC(F)(F)CC2)NC(=O)[C@H](CC(C)C)N(C)C(=O)[C@@H]1C` (single isomer, unassigned) [Example 53] was tested, and the MIC was 25 µM (≈ 19.3 µg/mL). `CCC[C@H]1C(=O)N[C@@H](C2CCCCC2)C(=O)N[C@@H](CN)C(=O)N[C@@H](COCCCN)C(=O)N[C@H](C)CO[C@H](CC2CC3(CCC3)C2)[C@@H](C)C(=O)N1C` [Example 157, (3R,6S,9S,12S,15S,18R,19R)-9-(Aminomethyl)-6-((3-aminopropoxy)methyl)-12-cyclohexyl-3,16,18-trimethyl-15-propyl-19-(spiro[3.3]heptan-2-ylmethyl)-1-oxa-4,7,10,13,16-pentaazacyclononadecane-5,8,11,14,17-pentaone] (cyclo([Chg][Dap]S(Propyl(3-NH2))[X13][NMeNva])) was tested, and the MIC was 12 µM (≈ 8.81 µg/mL). For `CCCCCCCCCC[C@H]1OC(=O)CNC(=O)[C@H](COCCO)NC(=O)[C@H](CO)NC(=O)[C@H]([C@@H](C)CC)NC(=O)[C@H](CC(C)C)N(C)C(=O)[C@@H]1C` [Example 48, (6S,9S,12S,15S,18R,19R)-19-decyl-6-(2-hydroxyethoxymethyl)-9-(hydroxymethyl)-15-isobutyl-16,18-dimethyl-12-[(1S)-1-methylpropyl]-1-oxa-4,7,10,13,16-pentazacyclononadecane-2,5,8,11,14,17-hexone], the MIC was 50 µM (≈ 37.1 µg/mL). `CCCCCCCCCC[C@H]1OC(=O)CNC(=O)[C@H](CNC(N)=O)NC(=O)[C@H](CO)NC(=O)[C@H]([C@@H](C)CC)NC(=O)[C@H](CC(C)C)N(C)C(=O)[C@@H]1C` [Example 37, [(6S,9S,12S,15S,18R,19R)-19-decyl-9-(hydroxymethyl)-15-isobutyl-16,18-dimethyl-12-[(1S)-1-methylpropyl]-2,5,8,11,14,17-hexaoxo-1-oxa-4,7,10,13,16-pentazacyclononadec-6-yl]methylurea] gave an MIC of 25 µM (≈ 18.5 µg/mL). Compound `CCCCCC[C@H]1OC[C@@H](C)NC(=O)[C@H](COc2ccc(CN)cc2)NC(=O)[C@H](CN)NC(=O)[C@H](C2CCCCC2)NC(=O)[C@H](CC(C)C)N(C)C(=O)[C@@H]1C` [Example 76, (3R,6S,9S,12S,15S,18R,19R)-9-(Aminomethyl)-6-((4-(aminomethyl)phenoxy)methyl)-12-cyclohexyl-19-hexyl-15-isobutyl-3,16,18-trimethyl-1-oxa-4,7,10,13,16-pentaazacyclononadecane-5,8,11,14,17-pentaone] has an MIC of 6.3 µM (≈ 4.86 µg/mL). `CCCCCC[C@H]1OC(=O)CNC(=O)[C@H]([C@H](C)O)NC(=O)[C@H](CN)NC(=O)[C@H](C2CCCCC2)NC(=O)[C@H](CC(C)C)N(C)C(=O)[C@@H]1Cc1ccc(C(F)(F)F)cc1` [Example 121, (6S,9S,12S,15S,18R,19R)-9-(aminomethyl)-12-cyclohexyl-19-hexyl-15-isobutyl-16-methyl-6-[(1S)-1-hydroxyethyl]-18-[[4-(trifluoromethyl)phenyl]methyl]-1-oxa-4,7,10,13,16-pentazacyclononadecane-2,5,8,11,14,17-hexone] gave an MIC of 6.3 µM (≈ 5.2 µg/mL). `CCC[C@H]1C(=O)N[C@@H](C2CCCCCC2)C(=O)N[C@@H](CN)C(=O)N[C@@H](CO[C@H]2C[C@H](N)C2)C(=O)N[C@H](C)CO[C@H](CC2CC3(CCC3)C2)[C@@H](C)C(=O)N1C` [Example 164, (3R,6S,9S,12S,15S,18R,19R)-6-(((1r,3S)-3-Aminocyclobutoxy)methyl)-9-(aminomethyl)-12-cycloheptyl-3,16,18-trimethyl-15-propyl-19-(spiro[3.3]heptan-2-ylmethyl)-1-oxa-4,7,10,13,16-pentaazacyclononadecane-5,8,11,14,17-pentaone] (cyclo([Dap]S(Cyclobutyl(trans-3-NH2))[X13][NMeNva][Gly(cHept)])) showed an MIC of 2.2 µM (≈ 1.67 µg/mL). Compound `CCCCCC[C@H]1OC(=O)CNC(=O)[C@H]([C@H](C)O)NC(=O)[C@H](CN)NC(=O)[C@H](C2CCCCC2)NC(=O)[C@H](CC(C)C)N(C)C(=O)[C@@H]1CCOc1ccc(C)cc1` [Example 106, (6S,9S,12S,15S,18R,19R)-9-(aminomethyl)-12-cyclohexyl-19-hexyl-15-isobutyl-16-methyl-18-[2-(4-methylphenoxy)ethyl]-6-[(1S)-1-hydroxyethyl]-1-oxa-4,7,10,13,16-pentazacyclononadecane-2,5,8,11,14,17-hexone] has an MIC of 6.3 µM (≈ 5.05 µg/mL). Work on `CCCCCC[C@H]1OC(=O)CNC(=O)[C@H]([C@H](C)O)NC(=O)[C@H](CN)NC(=O)[C@H]([C@H](C)CC)NC(=O)[C@H](CC(C)C)N(C)C(=O)[C@@H]1C` [Example 34, (6S,9S,12S,15S,18R,19R)-9-(aminomethyl)-19-hexyl-6-[(1S)-1-hydroxyethyl]-15-isobutyl-16,18-dimethyl-12-[(1R)-1-methylpropyl]-1-oxa-4,7,10,13,16-pentazacyclononadecane-2,5,8,11,14,17-hexone] yielded an MIC of 9.4 µM (≈ 6.16 µg/mL). Compound `CCCCCCCCCC[C@H]1OC(=O)CNC(=O)[C@H](CO)NC(=O)[C@H](CO)NC(=O)[C@H]([C@@H](C)CC)NC(=O)[C@H](CCC)N(C)C(=O)[C@@H]1C` [Example 36, (6S,9S,12S,15S,18R,19R)-19-decyl-6,9-bis(hydroxymethyl)-16,18-dimethyl-12-[(1S)-1-methylpropyl]-15-propyl-1-oxa-4,7,10,13,16-pentazacyclononadecane-2,5,8,11,14,17-hexone] has an MIC of 25 µM (≈ 17.1 µg/mL). For `CCCCCC[C@H]1OC(=O)CNC(=O)[C@H]([C@H](C)O)NC(=O)[C@H](CN)NC(=O)[C@H](C2CCCCC2)NC(=O)[C@H](CC(C)C)N(C)C(=O)[C@@H]1Cc1ccc(C)cc1` [Example 96, (6S,9S,12S,15S,18R,19R)-9-(aminomethyl)-12-cyclohexyl-19-hexyl-15-isobutyl-16-methyl-18-(p-tolylmethyl)-6-[(1S)-1-hydroxyethyl]-1-oxa-4,7,10,13,16-pentazacyclononadecane-2,5,8,11,14,17-hexone], the MIC was 5.3 µM (≈ 4.09 µg/mL). In the case of `CCCCCCCCCC[C@H]1OC(=O)CNC(=O)[C@H](COCCOCCN)NC(=O)[C@H](CO)NC(=O)[C@H]([C@@H](C)CC)NC(=O)[C@H](CC(C)C)N(C)C(=O)[C@@H]1C` [Example 92, (6S,9S,12S,15S,18R,19R)-6-[2-(2-aminoethoxy)ethoxymethyl]-19-decyl-9-(hydroxymethyl)-15-isobutyl-16,18-dimethyl-12-[(1S)-1-methylpropyl]-1-oxa-4,7,10,13,16-pentazacyclononadecane-2,5,8,11,14,17-hexone], the MIC is reported as 19 µM (≈ 14.9 µg/mL). In the case of `CCCCCCCCCC[C@H]1OC(=O)CNC(=O)[C@H](C2CCNCC2)NC(=O)[C@H](CO)NC(=O)[C@H]([C@@H](C)CC)NC(=O)[C@H](CC(C)C)N(C)C(=O)[C@@H]1C` [Example 38, (6S,9S,12S,15S,18R,19R)-19-decyl-9-(hydroxymethyl)-15-isobutyl-16,18-dimethyl-12-[(1S)-1-methylpropyl]-6-(4-piperidyl)-1-oxa-4,7,10,13,16-pentazacyclononadecane-2,5,8,11,14,17-hexone], the MIC is reported as 50 µM (≈ 37.6 µg/mL). With `CCCCCC[C@H]1O[C@@H](C)CNC(=O)[C@H]([C@H](C)O)NC(=O)[C@H](CN)NC(=O)[C@H](C2CCCCC2)NC(=O)[C@H](CC(C)C)N(C)C(=O)[C@@H]1C` [Example 71, (2S,6S,9S,12S,15S,18R,19R)-9-(Aminomethyl)-12-cyclohexyl-19-hexyl-6-((S)-1-hydroxyethyl)-15-isobutyl-2,16,18-trimethyl-1-oxa-4,7,10,13,16-pentaazacyclononadecane-5,8,11,14,17-pentaone] (cyclo([Chg][Dap][aThr][X16][NMeL])) the MIC was 12 µM (≈ 8.17 µg/mL). `CCCCCCCCCC[C@H]1OC(=O)CNC(=O)[C@H](CO)NC(=O)[C@H](CO)NC(=O)[C@H](C(CC)CC)NC(=O)[C@H](CC(C)C)N(C)C(=O)[C@@H]1C` [Example 43, (6S,9S,12S,15S,18R,19R)-19-decyl-12-(1-ethylpropyl)-6,9-bis(hydroxymethyl)-15-isobutyl-16,18-dimethyl-1-oxa-4,7,10,13,16-pentazacyclononadecane-2,5,8,11,14,17-hexone] gave an MIC of 13 µM (≈ 9.26 µg/mL).

Same assay, conditions: E. coli CFT073 ATCC 700928; Mueller Hinton II cation adjusted Broth with 0.002% v/v Tween-80; 35° C. for 22 hours; lowest concentration that completely prevented bacterial growth
Work on `C=CCCCC[C@H]1OC(=O)CNC(=O)[C@H]([C@H](C)O)NC(=O)[C@H](CN)NC(=O)[C@H](C2CCCCC2)NC(=O)[C@H](CC(C)C)N(C)C(=O)[C@@H]1C` [Example 105, (6S,9S,12S,15S,18R,19R)-9-(aminomethyl)-12-cyclohexyl-19-hex-5-enyl-15-isobutyl-16,18-dimethyl-6-[(1S)-1-hydroxyethyl]-1-oxa-4,7,10,13,16-pentazacyclononadecane-2,5,8,11,14,17-hexone] yielded an MIC of 5.2 µM (≈ 3.53 µg/mL).
